Measurements from ChEMBL document CHEMBL1201862, “PubChem BioAssay data set” (2004).
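The compound was tested at five concentrations on cells cultured in 96-well plates, with a 48-hour exposure period. Here, GI50 denotes the concentration required for 50% inhibition of growth.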 Active and inactive are the calls of the source. Cut-off read from the data, not from the text of the source: active = GI50 up to about 1.1 µM and inactive = higher.

Tests used:
Experiment in all cases: DTP human tumour cell line panel, 48 h
DMS-114 = tested on: DMS-114
HOP-18 = tested on: HOP-18
LXFL 529 = tested on: LXFL 529
M19-MEL = tested on: M19-MEL
SNB-78 = tested on: SNB-78
XF498 = tested on: XF498
DMS-273 = tested on: DMS-273
KM-20L2 = tested on: KM-20L2
RXF 631 = tested on: RXF 631

Compound | GI50 (DMS-114) | GI50 (HOP-18) | GI50 (LXFL 529) | GI50 (M19-MEL) | GI50 (SNB-78) | GI50 (XF498) | GI50 (DMS-273) | GI50 (KM-20L2) | GI50 (RXF 631)
O=C(NN1C(=O)C(Cl)C1c1ccccc1Cl)c1ccccc1O (stereo not given) | 70 µM (inactive) | > 100 µM (inactive) | > 100 µM (inactive) | > 100 µM (inactive) | > 100 µM (inactive) | 32.7 µM (inactive) | – | – | –
c1ccc(CN2CCc3[nH]c4ccccc4c3C2)cc1 | 19.8 µM (inactive) | 99.8 µM (inactive) | 22.9 µM (inactive) | 26.5 µM (inactive) | 35.6 µM (inactive) | 24.2 µM (inactive) | 56.2 µM (inactive) | 15 µM (inactive) | 18.8 µM (inactive)
CCN(CC)CC(C)(C)C(=O)/C=C/c1ccc(/C=C/C(=O)C(C)(C)CN(CC)CC)cc1 | 0.266 µM (active) | – | 0.188 µM (active) | 0.687 µM (active) | 1.41 µM (inactive) | 0.317 µM (active) | 0.234 µM (active) | 0.617 µM (active) | –
Cc1ccc(NC(=O)/C(Cl)=C(/Cl)C(=O)O)cc1 | 20 µM (inactive) | 19.1 µM (inactive) | 11.9 µM (inactive) | 16 µM (inactive) | 30.1 µM (inactive) | – | 22.1 µM (inactive) | 22.4 µM (inactive) | 24.4 µM (inactive)
CCOc1ccccc1Nc1nc(C)c(C(=O)CC(=O)C(=O)Nc2ccccc2)s1 | 35.5 µM (inactive) | > 100 µM (inactive) | 43.3 µM (inactive) | 36.5 µM (inactive) | > 100 µM (inactive) | 31.6 µM (inactive) | 54.2 µM (inactive) | 66.4 µM (inactive) | –
Cn1nc2ccc3nccc(NCCNCCO)c3c2n1 | – | – | 39.2 µM (inactive) | 40.4 µM (inactive) | 36.2 µM (inactive) | 35 µM (inactive) | – | 25.8 µM (inactive) | –
N#Cc1cc([N+](=O)[O-])ccc1NC(=O)C(=O)Nn1c(S)nc2ccccc2c1=O | – | > 100 µM (inactive) | > 100 µM (inactive) | > 100 µM (inactive) | > 100 µM (inactive) | > 100 µM (inactive) | – | > 100 µM (inactive) | > 100 µM (inactive)
CCOC(=O)C(C)(C)Oc1ccc2c(-c3ccccc3)cc(=O)oc2c1 | 21.9 µM (inactive) | – | 25.3 µM (inactive) | 32.2 µM (inactive) | – | 16.4 µM (inactive) | 29 µM (inactive) | 30.6 µM (inactive) | –
COc1ccc(/C=C\c2cc(OC)c(OC)c(OC)c2)cc1OC | 0.105 µM (active) | 0.411 µM (active) | 0.186 µM (active) | – | 0.0171 µM (active) | 0.122 µM (active) | 0.0207 µM (active) | 0.0771 µM (active) | 0.195 µM (active)
CC(=O)N1CCC2(C=Nc3ccccc32)CC1 | > 100 µM (inactive) | > 100 µM (inactive) | > 100 µM (inactive) | > 100 µM (inactive) | > 100 µM (inactive) | > 100 µM (inactive) | > 100 µM (inactive) | > 100 µM (inactive) | –
O=[N+]([O-])c1ccc(-c2ccc(C3=Nn4c(CNc5ccccc5Cl)nnc4SC3)o2)cc1 | – | – | 82.4 µM (inactive) | > 100 µM (inactive) | > 100 µM (inactive) | > 100 µM (inactive) | > 100 µM (inactive) | > 100 µM (inactive) | –
NNC(=O)C(=O)N/N=C1/CCCC1C(=O)CCC(=O)Nc1ccc(Cl)cc1 (stereo not given) | 63 µM (inactive) | > 100 µM (inactive) | 20.6 µM (inactive) | 89.3 µM (inactive) | > 100 µM (inactive) | > 100 µM (inactive) | 37.3 µM (inactive) | 6.04 µM (inactive) | > 100 µM (inactive)
COc1ccc(-c2oc(/C=N/c3ccccc3)c([N+](=O)[O-])c2-c2ccc(OC)c(OC)c2)cc1OC | > 100 µM (inactive) | – | > 100 µM (inactive) | > 100 µM (inactive) | > 100 µM (inactive) | > 100 µM (inactive) | > 100 µM (inactive) | > 100 µM (inactive) | –
CN(C)CCNC(=O)c1cccc2c1nc(-c1ccc(F)cc1)c1ccccc12 | 4.42 µM (inactive) | 14.4 µM (inactive) | – | 5.52 µM (inactive) | 10.7 µM (inactive) | – | 2.15 µM (inactive) | – | –
CC(=O)/C(=N\O)C(=O)NCc1ccccc1 | 29.4 µM (inactive) | > 100 µM (inactive) | > 100 µM (inactive) | – | > 100 µM (inactive) | – | > 100 µM (inactive) | > 100 µM (inactive) | > 100 µM (inactive)
COC(=O)C1Cc2c([nH]c3ccccc23)[C@H](CC(C)C)N1 (stereo not given in full) | > 100 µM (inactive) | > 100 µM (inactive) | > 100 µM (inactive) | > 100 µM (inactive) | > 100 µM (inactive) | > 100 µM (inactive) | > 100 µM (inactive) | > 100 µM (inactive) | –
[O-][S+](c1ccc(O)cc1)c1ccc(O)cc1 | > 100 µM (inactive) | – | – | > 100 µM (inactive) | – | > 100 µM (inactive) | > 100 µM (inactive) | > 100 µM (inactive) | > 100 µM (inactive)
O=C(CN1CCN(c2ccccc2)CC1)N1CCc2c([nH]c3ccccc23)C1c1cccnc1 (stereo not given) | 26.9 µM (inactive) | > 100 µM (inactive) | 71.9 µM (inactive) | > 95.9 µM (inactive) | 13.5 µM (inactive) | 24.1 µM (inactive) | 49 µM (inactive) | > 100 µM (inactive) | 33.3 µM (inactive)
CCCCCCCCCC[C@@H](O)[C@@H]1CC[C@@H]([C@@H]2CC[C@@H]([C@@H](O)CCCCCCCCCC[C@H](O)CC3=CC(C)OC3=O)O2)O1 (stereo not given in full) | < 0.01 µM (active) | – | 3.82 µM (inactive) | 2.22 µM (inactive) | 3.8 µM (inactive) | – | 2.36 µM (inactive) | 13.6 µM (inactive) | 1.97 µM (inactive)
OC1[C@H]([C@H]2CCCC[C@@H]2O)CCC[C@@H]1[C@@H]1CCCC[C@H]1O (stereo not given in full) | > 100 µM (inactive) | > 100 µM (inactive) | > 100 µM (inactive) | > 100 µM (inactive) | 48.2 µM (inactive) | > 100 µM (inactive) | > 100 µM (inactive) | > 100 µM (inactive) | –
CCCCCCCCCC(=O)N[C@H]1CCc2cc(OC)c(OC)c(OC)c2-c2ccc(SC)c(=O)cc21 | 0.0188 µM (active) | – | 0.0297 µM (active) | 0.0445 µM (active) | 0.0405 µM (active) | 0.022 µM (active) | < 0.01 µM (active) | 0.0198 µM (active) | 0.0197 µM (active)
Oc1cc(-c2cccc(Cl)c2)nc2cc3c(cc12)OCO3 | 0.296 µM (active) | 1.5 µM (inactive) | 0.19 µM (active) | 0.327 µM (active) | – | 1.4 µM (inactive) | 0.327 µM (active) | – | –
CC(=O)O[C@@]12CO[C@@H]1C[C@H](O)[C@@]1(C)C(=O)[C@H](O)C3=C(C)[C@@H](OC(=O)[C@H](O)[C@@H](NC(=O)OC(C)(C)C)c4ccccc4)C[C@@](O)([C@@H](OC(=O)c4ccccc4)[C@H]21)C3(C)C [DOCETAXEL] | < 0.01 µM (active) | 29.9 µM (inactive) | < 0.01 µM (active) | < 0.01 µM (active) | – | – | < 0.01 µM (active) | < 0.01 µM (active) | < 0.01 µM (active)
